# Experimental data from PMC10380810, “Nitazoxanide Inhibits the Bifunctional Enzyme GlG6PD::6PGL of Giardia lamblia: Biochemical and In Silico Characterization of a New Druggable Target” (International Journal of Molecular Sciences, 2023).
# Target: T1, GlG6PD::6PGL (fused bifunctional glucose-6-phosphate dehydrogenase::6-phosphogluconolactonase) (Giardia duodenalis, UniProt A8BWM5)
# T1 construct: gene GL50803_008682; recombinant fused GlG6PD::6PGL; activity of the G6PD domain measured
# Experiment: residual G6PD activity at […] nm after […] h preincubation at […] °C with purified recombinant enzyme; k2 […] ^-1 s^-1; intrinsic and ANS fluorescence changes
# Type: biochemical
# T1 sequence (A8BWM5 entry or part of it): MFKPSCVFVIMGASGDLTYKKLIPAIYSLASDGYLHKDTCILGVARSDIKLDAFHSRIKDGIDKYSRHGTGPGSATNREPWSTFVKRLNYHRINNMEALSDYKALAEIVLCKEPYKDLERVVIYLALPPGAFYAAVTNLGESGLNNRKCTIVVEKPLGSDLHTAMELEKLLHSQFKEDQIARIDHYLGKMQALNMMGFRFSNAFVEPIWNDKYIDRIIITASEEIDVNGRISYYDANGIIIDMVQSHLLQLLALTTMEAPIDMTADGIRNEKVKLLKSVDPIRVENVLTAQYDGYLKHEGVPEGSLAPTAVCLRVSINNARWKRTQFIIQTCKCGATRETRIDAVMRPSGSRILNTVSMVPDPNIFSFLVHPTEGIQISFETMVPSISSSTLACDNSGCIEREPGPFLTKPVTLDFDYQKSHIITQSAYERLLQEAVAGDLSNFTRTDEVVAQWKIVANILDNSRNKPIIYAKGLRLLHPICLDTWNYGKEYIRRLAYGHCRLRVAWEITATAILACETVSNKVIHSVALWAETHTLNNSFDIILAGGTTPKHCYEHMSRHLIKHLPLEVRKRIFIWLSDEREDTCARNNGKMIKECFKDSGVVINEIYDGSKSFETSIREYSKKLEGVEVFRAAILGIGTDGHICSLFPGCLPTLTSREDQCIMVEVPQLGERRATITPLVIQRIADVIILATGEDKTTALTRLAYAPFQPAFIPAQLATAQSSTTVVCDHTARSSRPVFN
smiles,measurement,value
"CC(=O)Oc1ccccc1C(=O)Nc1ncc([N+](=O)[O-])s1 [NTZ, 2-acetyloloxy-N-(5-nitro-2thiazolyl)benzamide]",IC50,40 µM
